In patent publication US20040024027A1 (priority 2000, published 2004):

Experiment: Exposure to 75% Relative Humidity atmosphere (re-weighing and infrared spectrum)
Format: physicochemical
Settings: sealed container, 75% Relative Humidity (saturated sodium chloride solution), 21° C., 96 hours
Description: The sample was re-weighed and the infrared spectrum of the product recorded.

Compound: CN(CCOc1ccc(CC2SC(=O)NC2=O)cc1)c1ccccn1.I (centres unmarked) [Hydriodide, 5-[4-[2-(N-Methyl-N-(2-pyridyl)amino)ethoxy]benzyl]thiazolidine-2,4-dione Hydriodide]
- Infrared spectrum after humidity exposure: no change
- Sample weight after humidity exposure: no weight gain
